Measurements: ChEMBL document CHEMBL1240505, “Studies on preparation and photodynamic mechanism of chlorin P6-13,15-N-(cyclohexyl)cycloimide (Chlorin-H) and its antitumor effect for photodynamic therapy in vitro and in vivo” (Bioorg Med Chem, 2010)
Calls of active or inactive are those of the source. No cut-off for these calls is given here.

Tests used:
A549 [1] = test: Induction of apoptosis in human A549 cells assessed as viable cells at 4 uM after 24 hrs using annexin-V-PE/7-AAD double staining by flow cytometry; assay type: functional; conditions: A549, 24 h, read-out: Activity
A549 [2] = test: Induction of apoptosis in human A549 cells assessed as pre-necrotic cells at 4 uM after 24 hrs using annexin-V-PE/7-AAD double staining by flow cytometry; assay type: functional
A549 [3] = test: Induction of apoptosis in human A549 cells assessed as upregulation of XIAP mRNA expression at 4 uM after 24 hrs followed by irradiated with light dose 0.18 J/cm2 by RT-PCR analysis; assay type: functional, cell-based
A549 [4] = test: Induction of apoptosis in human A549 cells transfected with lentivirus GFP assessed as cell survival at 4 uM after 24 hrs followed by irradiated with light dose 0.18 J/cm2 by MTT assay; assay type: functional; conditions: A549, light or radiation study, read-out: Activity
A549 [5] = test: Induction of apoptosis in human A549 cells assessed as viable cells at 4 uM after 24 hrs followed by irradiated with light dose 0.18 J/cm2 using annexin-V-PE/7-AAD double staining by flow cytometry; assay type: functional; conditions: A549, light or radiation study, read-out: Activity
A549 [6] = test: Induction of apoptosis in human A549 cells transfected with lentivirus Smac-siRNA assessed as reduction of Smac mRNA level at 4 uM after 24 hrs followed by irradiated with light dose 0.18 J/cm2 by MTT assay; assay type: functional; parameters: scale not given: the % may be the effect or the level left
A549 [7] = test: Induction of apoptosis in human A549 cells assessed as late apoptotic mitochondrial membrane depolarized cells at 4 uM after 24 hrs followed by irradiated with light dose 0.18 J/cm2 using JC-1 staining by flow cytometry; assay type: functional
A549 [8] = test: Induction of apoptosis in human A549 cells assessed as viable cells at 4 uM after 24 hrs followed by irradiated with light dose 0.18 J/cm2 using annexin-V FITC/PI double staining by flow cytometry; assay type: functional; conditions: A549, light or radiation study, read-out: Activity
A549 [9] = test: Antiproliferative activity against human A549 cells assessed as reduction of colony formation at 4 uM irradiated with light dose 0.18 J/cm2 for 14 days before compound challenge measured after 24 hrs using giemsa staining by microscopic analysis; assay type: functional, cell-based
A549 [10] = test: Induction of apoptosis in human A549 cells assessed as live mitochondrial membrane polarized cells at 4 uM after 24 hrs followed by irradiated with light dose 0.18 J/cm2 using JC-1 staining by flow cytometry; assay type: functional
A549 [11] = test: Induction of apoptosis in human A549 cells assessed as dying mitochondrial membrane depolarized cells at 4 uM after 24 hrs using JC-1 staining by flow cytometry; assay type: functional
A549 [12] = test: Antitumor activity against human A549 cells xenografted in nude BALB/C mouse assessed as tumor shrinkage at 8 uM after 24 hrs followed by irradiated with light dose 78 J/cm2 measured after 10 days; assay type: functional, cell-based
A549 [13] = test: Antitumor activity against human A549 cells xenografted in nude BALB/C mouse assessed as hardened tumor at 8 uM after 24 hrs followed by irradiated with light dose 78 J/cm2 measured after 10 days; assay type: functional, cell-based
A549 [14] = test: Induction of apoptosis in human A549 cells assessed as late apoptotic mitochondrial membrane depolarized cells at 4 uM after 24 hrs using JC-1 staining by flow cytometry; assay type: functional
A549 [15] = test: Cell cycle arrest in human A549 cells assessed as accumulation at S phase at 4 uM after 24 hrs followed by irradiated with light dose 0.18 J/cm2 by flow cytometry; assay type: functional
[16] = Drug uptake in human U87 cell mitochondria by using Hoechst 33258 staining; assay type: ADME; conditions: u-87mg atcc
AGS = test: Cytotoxicity against human AGS cells assessed as cell death at 4 uM after 24 hrs followed by irradiated with light dose 0.18 J/cm2 by MTT assay; assay type: functional, cell-based
A549 [17] = test: Induction of apoptosis in human A549 cells assessed as live mitochondrial membrane depolarized cells at 4 uM after 24 hrs using JC-1 staining by flow cytometry; assay type: functional
A549 [18] = test: Cell cycle arrest in human A549 cells assessed as accumulation at G2/M phase at 4 uM after 24 hrs by flow cytometry; assay type: functional
A549 [19] = test: Induction of apoptosis in human A549 cells assessed as apoptotic cells at 4 uM after 24 hrs followed by irradiated with light dose 0.18 J/cm2 using annexin-V-PE/7-AAD double staining by flow cytometry; assay type: functional
A549 [20] = test: Cytotoxicity against human A549 cells assessed as cell death at 4 uM after 24 hrs followed by irradiated with light dose 0.18 J/cm2 by MTT assay; assay type: functional, cell-based
A549 [21] = test: Induction of apoptosis in human A549 cells assessed as upregulation of Bcl2 mRNA expression at 4 uM after 24 hrs followed by irradiated with light dose 0.18 J/cm2 by RT-PCR analysis; assay type: functional, cell-based
A549 [22] = test: Induction of apoptosis in human A549 cells transfected with lentivirus TNFSF13-siRNA assessed as cell survival at 4 uM after 24 hrs followed by irradiated with light dose 0.18 J/cm2 by MTT assay; assay type: functional; conditions: A549, light or radiation study, read-out: Activity
A549 [23] = test: Induction of apoptosis in human A549 cells assessed as late apoptotic cells at 4 uM after 24 hrs followed by irradiated with light dose 0.18 J/cm2 using annexin-V FITC/PI double staining by flow cytometry; assay type: functional
[24] = Drug uptake in human U87 cell nucleus by using Hoechst 33258 staining; assay type: ADME, cell-based; conditions: u-87mg atcc
A549 [25] = test: Induction of apoptosis in human A549 cells assessed as late apoptotic cells at 4 uM after 24 hrs followed by irradiated with light dose 0.18 J/cm2 using annexin-V-PE/7-AAD double staining by flow cytometry; assay type: functional
A549 [26] = test: Induction of apoptosis in human A549 cells transfected with lentivirus Smac-siRNA assessed as cell survival at 4 uM after 24 hrs followed by irradiated with light dose 0.18 J/cm2 by MTT assay; assay type: functional; conditions: A549, light or radiation study, read-out: Activity
A549 [27] = test: Induction of apoptosis in human A549 cells assessed as pre-necrotic cells at 4 uM after 24 hrs followed by irradiated with light dose 0.18 J/cm2 using annexin-V FITC/PI double staining by flow cytometry; assay type: functional
A549 [28] = test: Antitumor activity against human A549 cells xenografted in nude BALB/C mouse assessed as reduction of tumor growth at 8 uM after 20 days; assay type: functional, cell-based
A549 [29] = test: Induction of apoptosis in human A549 cells assessed as late apoptotic cells at 4 uM after 24 hrs using annexin-V-PE/7-AAD double staining by flow cytometry; assay type: functional
A549 [30] = test: Induction of apoptosis in human A549 cells assessed as apoptotic cells at 4 uM after 24 hrs using annexin-V FITC/PI double staining by flow cytometry; assay type: functional

## C=Cc1c(C)c2cc3nc(c4c5[nH]c(cc6nc(cc1[nH]2)C(C)=C6CC)c(C)c5C(=O)N(C1CCCCC1)C4=O)[C@@H](CCC(=O)O)[C@@H]3C
A549 [1]
  viability at 4 µM: 91%
A549 [2]
  Activity: 0.41%
A549 [3]
  Activity: Active
A549 [4]
  viability at 4 µM: 44.9%
A549 [5]
  viability at 4 µM: 9.32%
A549 [6]
  Activity: 60%
A549 [7]
  Activity: 91.08%
A549 [8]
  viability at 4 µM: 2.08%
A549 [9]
  Activity: Active
A549 [10]
  Activity: 0.01%
A549 [11]
  Activity: 9.35%
A549 [12]
  Activity: Active
A549 [13]
  Activity: Active
A549 [14]
  Activity: 88.88%
A549 [15]
  Activity: 21.56%
[16]
  Drug uptake: Active
AGS
  Activity: Active
A549 [17]
  Activity: 0.01%
A549 [18]
  Activity: 11.07%
A549 [19]
  Activity: 55.33%
A549 [20]
  Activity: Active
A549 [21]
  Activity: Active
A549 [22]
  viability at 4 µM: 72.1%
A549 [23]
  Activity: 23.28%
[24]
  Drug uptake: Active
A549 [25]
  Activity: 27.71%
A549 [26]
  viability at 4 µM: 24.5%
A549 [27]
  Activity: 0.4%
A549 [28]
  Activity: inactive
A549 [29]
  Activity: 3.6%
A549 [30]
  Activity: 0.99%
